Numbered stars: 1 amine (or outer) side, 2 acyl side, 3 side chain; on linkers, the order of the positions; unused ones are H or OH. Bridge positions count the residues as written; N and C are the ends. Square brackets hold non-standard residues; d marks the D form. Peptide text beside a SMILES is read from it. N(2-Aminoethyl)Gly = O=C(CN(CCN[*:3])[*:1])[*:2]; CO = O=C([*:1])[*:2]

The data set can be described thus: Immunogenicity, antibody titer by ELISA in BALB/c mice. Format: in vivo, BALB/c male mice. To be noted: 40 days, Figure 8. Here is the method:
Figure 8 Antibody titer test in BALB/c mice, 40 days post intraperitoneal administration with natalizumab (18 mg/kg), visabron c (2–2) (150 mg/kg) alone, and administered together with Complete Freund’s Adjuvant (visabron c (2–2) + CFA), as compared to preimmune control serum. The results represent the mean ± SEM (n = 6) of optical absorbance (OD 490 nm) in ELISA. *p ≤ 0.01 compared to control.
BALB/c male mice, aged 60 days (22 gr) were divided into three groups each containing six mice. The mice were immunized intraperitoneal with 0.5 mL of Visabron c (2–2) (150 mg/kg), 0.25 mL Visabron c (2–2) (150 mg/kg) + 0.25 mL of Freund‘s complete adjuvant, and 0.25 mL natalizumab (18 mg/kg). After 14 days of the first inoculation, the mice received a booster with 0.5 mL of the preparations mentioned above. To verify the presence of antibodies against visabron c (2–2) or natalizumab, the serum collected from mice tail blood was tested 40 days after the first inoculation by indirect ELISA using visabron c (2–2) or natalizumab antigens immobilized to the plate (25 μg per well, diluted in 20 mM carbonate buffer, pH 9.6 overnight incubated at 4 °C). […] The reaction was stopped with 12.5% H2SO4, and absorbance was measured at 490 nm. The results were considered significant when the absorbance was at least two times higher than that obtained with the preimmune serum.
For orientation: In an ELISA, binding on a coated surface is turned into a signal by an enzyme label.

With `CSCC[C@@H]1NC(=O)[C@H]([C@@H](C)O)NC(=O)CN(C(=O)[C@@H](N)CCCCN)CCNC(=O)NCCN(CC(=O)N[C@@H](CC(C)C)C(N)=O)C(=O)[C@H](CC(=O)O)NC(=O)[C@H](CC(C)C)NC1=O` [visabron c (2–2)] (H-K[N(2-Aminoethyl)Gly]TMLD[N(2-Aminoethyl)Gly]L-NH2; linker 2-7 via CO), the “Antibody production (ELISA vs preimmune serum)” value (150 mg/kg intraperitoneal alone) is “did not induce antibody production” and the “Antibody production (ELISA vs preimmune serum)” value (150 mg/kg intraperitoneal together with Freund's complete adjuvant) is reported as “did not induce antibody production”.

For the origin of these results see PMC8717366, “Synthesis and Pharmacological Characterization of Visabron, a Backbone Cyclic Peptide Dual Antagonist of α4β1 (VLA-4)/α9β1 Integrin for Therapy of Multiple Sclerosis” (JACS Au, 2021).
